Earlier results on one compound are cited in US12036329B2, “Mucoadhesive dispersion nanoparticle system and method for production the same” (LEAD BIOTHERAPEUTICS LTD, priority 2018, dated 2024).

The series concerns alpha-adrenergic receptor. The settings on record: generally accepted.

As to `Cc1cc(C(C)(C)C)cc(C)c1CC1=NCCN1` [xylometazoline], the Duration of effect was 5 to 6 h.
